Test results published in US10271552B2, “Heterocyclic compounds as pesticides” (Bayer CropScience Aktiengesellschaft, priority 2015, dated 2019).

How the values were obtained:
Format in all cases: in vivo
Meloidogyne incognita = Meloidogyne incognita test; settings: 20 ppm; eggs and larvae, salad seeds in sand; after 14 days
Method in brief: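 Compound taken up in acetone and diluted with water, then applied to sand with M. incognita eggs and larvae plus salad seeds. Gall formation on roots scored after 14 days: 100% means no galls, 0% equals untreated control.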

Tetranychus urticae = Tetranychus urticae spray test OP-resistant; settings: foliar, 144 h, French bean leaf disks, all instars, after 6 days
Protocol: Tetranychus urticae—Spray Test OP-Resistant
(§1) Solvent: 78.0 parts by weight acetone • 1.5 parts by weight dimethylformamide
(§2) Emulsifier: alkylarylpolyglycol ether
(§3) To produce a suitable preparation of active compound, 1 part by weight of active compound is mixed with the stated amount of solvents and is diluted with water, containing an emulsifier concentration of 1000 ppm, to the desired concentration. Further test concentrations are prepared by dilution with emulsifier containing water.
French bean (Phaseolus vulgaris) leaf disks infected with all instars of the two spotted spidermite (Tetranychus urticae), are sprayed with a preparation of the active ingredient of the desired concentration.
After 6 days mortality in % is determined. 100% means all spider mites have been killed and 0% means none of the spider mites have been killed.

Nilaparvata lugens [1] = assay: Nilaparvata lugens spray test (solvent 52.5 acetone / 7 dimethylformamide); settings: 96 h, rice plants, larvae, after 4 days
Protocol: (§4) Nilaparvata lugens—Spray Test
Solvent: 52.5 parts by weight of acetone • 7 parts by weight of dimethylformamide
Emulsifier: alkylaryl polyglycolether
as §3, with “water. Ammonium salt and/or penetration enhancer in a dosage of 1000 ppm are added to the desired concentration if necessary.” for “water.”
Rice plants (Oryza sativa) are treated by being sprayed with the desired concentration of the active compound and are infested with larvae of the brown planthopper (Nilaparvata lugens).
(§5) After 4 days mortality in % is determined. 100% means all planthoppers have been killed and 0% means none of the planthoppers have been killed.

Phaedon cochleariae = Phaedon cochleariae spray test; settings: foliar, 168 h, Chinese cabbage leaf disks, larvae, after 7 days
Method in brief: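 Chinese cabbage leaf disks sprayed with compound in acetone/DMF diluted in water containing 1000 ppm alkylarylpolyglycol ether emulsifier. Dried disks infested with mustard beetle larvae. Percent mortality read after 7 days.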

Nezara viridula [2] = assay: Nezara viridula spray test (solvent 52.5 acetone / 7 dimethylformamide); settings: 96 h, barley plants, larvae, after 4 days
Method in brief: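 Barley plants carrying Nezara viridula larvae were sprayed with compound diluted in water with 1000 ppm emulsifier, plus ammonium salt and/or penetration enhancer at 1000 ppm where needed. Mortality (%) was scored after 4 days, 100% meaning all bugs killed.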

Boophilus microplus = Boophilus microplus injection test; settings: 20 μg/animal injected; adult engorged female ticks; after 7 days
Method in brief: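 Efficacy expresses the share of infertile eggs (100% all infertile, 0% all fertile), judged at 7 days or at hatching around day 42. Five adult engorged females were each injected abdominally with 1 μl of DMSO compound solution and incubated in a climate chamber.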

Lucilia cuprina = assay: whole plant or invertebrate; settings: 48 h
Protocol: (§6) Solvent: dimethyl sulfoxide
10 mg active compound are dissolved in 0.5 ml Dimethylsulfoxid. Serial dilutions are made to obtain the desired rates.
Approximately 20 1st instar larvae of the Australian sheep blowfly (Lucilia cuprina) are transferred into a test tube containing minced horse meat and compound solution of the desired concentration.
After 2 days mortality in % is determined. 100% means all the larvae have been killed; 0% means none of the larvae have been killed.

Myzus persicae = Myzus persicae spray test; settings: foliar, Chinese cabbage leaf disks, all instars, after 5-6 days
Protocol: Myzus persicae—Spray Test
as §1, §2, §3
Chinese cabbage (Brassica pekinensis) leaf disks infected with all instars of the green peach aphid (Myzus persicae), are sprayed with a preparation of the active ingredient of the desired concentration.
After 5-6 days mortality in % is determined. 100% means all aphids have been killed and 0% means none of the aphids have been killed.

Nilaparvata lugens [3] = assay: Nilaparvata lugens spray test (solvent 78.0 acetone / 1.5 dimethylformamide); settings: 96 h, rice plants, after 4 days
Protocol: as §4
(§7) Solvent: 78.0 parts by weight of acetone • • 1.5 parts by weight of dimethylformamide
as §2, §3
Rice plants (Oryza sativa) are sprayed with a preparation of the active ingredient of the desired concentration and the plants are infested with the brown planthopper (Nilaparvata lugens).
as §5

Ctenocephalides felis = assay: whole plant or invertebrate; settings: po, 48 h
Protocol: Ctenocephalides felis—Oral Test
as §6
To produce a suitable preparation of active compound, 10 mg of active compound are dissolved in 0.5 ml solvent, and the concentrate is diluted with cattle blood to the desired concentration.
Approximately 20 adult unfed cat fleas (Ctenocephalides felis) are placed in flea chambers. The blood chamber, sealed with parafilm on the bottom, are filled with cattle blood supplied with compound solution and placed on the gauze covered top of the flea chamber, so that the fleas are able to suck the blood. The blood chamber is heated to 37° C. whereas the flea chamber is kept at room temperature.
After 2 days mortality in % is determined. 100% means all the fleas have been killed; 0% means none of the fleas have been killed.

Nezara viridula [4] = assay: Nezara viridula spray test (solvent 78.0 acetone / 1.5 dimethylformamide); settings: 96 h, barley plants, larvae, after 4 days
Protocol: Nezara viridula—Spray Test
as §7, §2
as §3, with “solvent,” for “solvents”, “and the concentrate” for “and”
Barley plants (Hordeum vulgare) infested with larvae of the southern green stink bug (Nezara viridula) are sprayed with a test solution containing the desired concentration of the active ingredient.
After 4 days mortality in % is determined. 100% means all the stink bugs have been killed; 0% means none of the stink bugs have been killed.

Diabrotica balteata = Diabrotica balteata spray test; settings: 160 μg/well; germinated wheat seeds, larvae; after 7 days
Method in brief: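 Germinated wheat seeds on agar (5 per well) sprayed with compound in acetone/DMF diluted in water with 1000 ppm alkylarylpolyglycol ether, then infested with 10–20 D. balteata larvae. Efficacy (%) scored after 7 days as seedling growth, 100% matching untreated uninfested control and 0% meaning no seedlings grew.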

O=C(Nc1nc(-c2ccccc2C(F)(F)F)ns1)c1cccnc1C(F)(F)F [Compound I-1-20, 2-(trifluoromethyl)-N-{3-[2-(trifluoromethyl)phenyl]-1,2,4-thiadiazol-5-yl}nicotinamide]
nematicidal activity (gall formation) (Meloidogyne incognita): 100% | mortality at 500 g/ha (Tetranychus urticae): ≥ 70% | mortality at 500 g/ha (Nilaparvata lugens [1]): ≥ 80% | mortality at 500 g/ha (Phaedon cochleariae): ≥ 80% | mortality at 500 g/ha (Nezara viridula [2]): ≥ 90% | efficacy (infertile eggs) (Boophilus microplus): 100% | mortality at 100 ppm (Lucilia cuprina): 100% | mortality at 500 g/ha (Myzus persicae): ≥ 70% | mortality at 500 g/ha (Nilaparvata lugens [3]): ≥ 70% | mortality at 100 ppm (Ctenocephalides felis): 100% | mortality at 500 g/ha (Nezara viridula [4]): ≥ 90% | efficacy (seedling growth) (Diabrotica balteata): 100%
